These results are taken from patent US7300926B2, “Steroidal quinols and their use for estrogen replacement therapy” (University of Florida Research Foundation, Inc., priority 2002, dated 2007).

Read-outs that look alike come from different tables or passages of the source. Bounds are passed on as bounds.

Data set [1] in a line: Uterine weight in ovariectomized rats. Format: in vivo, rat. The settings on record: OVX rats; for uterine weight compared with control group: 200 μg/kg sc; for Uterine Weight (g, ± SEM): 200 μg/kg sc in corn oil, 2 hours prior to MCAO, harvested 24 hours after reperfusion. The procedure:
Female, Sprague rats (200-250 g, Charles River, Wilmington, Mass.) were acclimatized for three days prior to surgery. Bilateral ovariectomy (OVX) was performed two weeks prior to middle cerebral artery occlusion (MCAO). Animals were anesthetized by intraperitoneal injection of ketamine (60 mg/kg) and xylazine (10 mg/kg). Rectal temperature was maintained at 37.5±0.5° C. during procedure. The middle cerebral artery was occluded for one hour then suture was withdrawn for reperfusion. […] Animals were decapitated 24 hours after reperfusion. Uteruses were harvested, blotted, and weighed for comparison among treatment groups.

For data set [2], the target named is T1, recombinant estrogen receptor α (ERα) (Homo sapiens, UniProt P03372).
T1 construct: purchased Panvera, Madison, Wis
T1 sequence (P03372 1-595): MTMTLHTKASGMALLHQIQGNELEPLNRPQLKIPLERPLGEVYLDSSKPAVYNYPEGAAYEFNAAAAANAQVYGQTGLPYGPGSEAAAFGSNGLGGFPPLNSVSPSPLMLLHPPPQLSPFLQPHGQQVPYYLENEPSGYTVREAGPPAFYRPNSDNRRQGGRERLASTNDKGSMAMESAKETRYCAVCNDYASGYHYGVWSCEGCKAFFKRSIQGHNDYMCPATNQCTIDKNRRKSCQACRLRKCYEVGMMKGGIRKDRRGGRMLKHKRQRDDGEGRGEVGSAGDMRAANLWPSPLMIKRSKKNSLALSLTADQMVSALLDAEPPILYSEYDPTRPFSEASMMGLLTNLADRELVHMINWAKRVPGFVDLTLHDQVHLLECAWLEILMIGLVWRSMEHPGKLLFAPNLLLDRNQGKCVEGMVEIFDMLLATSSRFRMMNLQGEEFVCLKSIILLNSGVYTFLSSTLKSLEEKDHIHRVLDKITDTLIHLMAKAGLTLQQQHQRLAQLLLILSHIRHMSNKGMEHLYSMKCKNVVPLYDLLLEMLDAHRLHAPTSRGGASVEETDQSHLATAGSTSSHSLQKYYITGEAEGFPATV
Nature of the data set: Competition binding assay, […] EFC Estrogen Chemiluminescence Assay. The method, then: (§1) Competition binding assays were performed using an enzyme fragment complementation (EFC) method described in the […] EFC Estrogen Chemiluminescence Assay kit (Fremont, Calif.). […] The enzyme acceptor was then added for another 1.5 hours after which chemiluminescence substrate was added for another hour. Relative luminescences were determined using a Biotek FL600 plate reader (Biotek Instruments, Winooski, Vt.).

The target of data set [3] is T2, recombinant estrogen receptor β (ERβ) (Homo sapiens, UniProt Q92731).
T2 construct: purchased Panvera, Madison, Wis
The data set is described as above. The procedure:
as §1

A short description of data set [4]: In vitro reduction of estrone-quinol to estrone by reducing agents in phosphate buffer (LC/MS). Format: in vitro ADME. The settings on record: for extent of reductive conversion: pH 7.5, 37° C. The procedure: Estrone-quinol (0.1 mM) was incubated at 37° C. in 0.1 M phosphate buffer pH 7.5 in the presence of 1 mM of NADH, NADPH, sodium ascorbate, and glutathione (GSH). Aliquots (500 μl) were taken after 60 minutes of incubation, and extracted with ethyl acetate (3×0.5 mL) and the mixture vortexed for 1 minute and centrifuged at […] for 5 minutes. After removing the solvent, the residue of the combined organic extracts was analyzed for their estrone content by LC/MS/MS.
Mass spectra were recorded on a quadrupole ion-trap instrument (LCQ, ThermoFinnigan) using positive-ion APCI as the method of ionization. […] Compound identification was based on retention time (tR), APCI mass spectra, MS/MS and MS^3 with authentic compounds as references. […].
At incremental time points, […] aliquots were removed into ice-cooled centrifuge tubes, and 50 μl of glacial acetic acid was added. After immediate extraction with ethyl acetate (2×500 μl), the organic layer was evaporated under nitrogen stream at room temperature. Reconstitution of the samples with the LC mobile phase was followed by LC/MS analyses. For control, no reducing agents were used.
[…]. […] Kinetic analysis of the microsomal metabolism was done by nonlinear curve-fitting (Scientist for Windows; MicroMath, Inc., Salt Lake City, Utah) presuming consecutive first-order processes in the cascade of estrone-quinol→estrone→estrone-metabolites.

A short description of data set [5]: Cerebral microdialysis, reduction of estrone-quinol to estrone in vivo. The settings on record: probe perfused at 1 μl/min with 10 picomole/μL in aCSF, ventral hippocampus. Also on record: species or system rat. The text has this:
Male, Sprague rats (300-400 g) were anesthetized, placed in a stereotaxic instrument, and a guide cannula (CMA/12 guide cannula) was implanted into the ventral hippocampus under aseptic conditions. The guide cannula was fixed to the skull, together with stainless steel screws attached into additional two holes, with dental acrylics. Before starting the experiment (usually 5-7 days after the implantation of the guide cannula implantation) the rats were placed in a containment unit (BAS, Inc.) for at least 30 minutes. Then a microdialysis probe (CMA/12 polycarbonate membrane diameter 0.5 mm; membrane length 4 mm; molecular cut off: 5,000 Da) was inserted into the ventral hippocampus through the guide cannula. After insertion, the microdialysis probe was perfused with an artificial cerebrospinal fluid (aCSF) at a flow rate of 1 μl/min. maintained by a microperfusion pump (BAS BeeStinger) attached to the probe via polyethylene tubing and a liquid swivel. After equilibration for 50 minutes, an automatic refrigerated fraction collector (BAS HoneyComb) was used for continuous sampling of the probe efflux for 24 hours in 60 minute fractions collected into 300-μl glass vials (control). […]

T2 sequence (Q92731 whole entry): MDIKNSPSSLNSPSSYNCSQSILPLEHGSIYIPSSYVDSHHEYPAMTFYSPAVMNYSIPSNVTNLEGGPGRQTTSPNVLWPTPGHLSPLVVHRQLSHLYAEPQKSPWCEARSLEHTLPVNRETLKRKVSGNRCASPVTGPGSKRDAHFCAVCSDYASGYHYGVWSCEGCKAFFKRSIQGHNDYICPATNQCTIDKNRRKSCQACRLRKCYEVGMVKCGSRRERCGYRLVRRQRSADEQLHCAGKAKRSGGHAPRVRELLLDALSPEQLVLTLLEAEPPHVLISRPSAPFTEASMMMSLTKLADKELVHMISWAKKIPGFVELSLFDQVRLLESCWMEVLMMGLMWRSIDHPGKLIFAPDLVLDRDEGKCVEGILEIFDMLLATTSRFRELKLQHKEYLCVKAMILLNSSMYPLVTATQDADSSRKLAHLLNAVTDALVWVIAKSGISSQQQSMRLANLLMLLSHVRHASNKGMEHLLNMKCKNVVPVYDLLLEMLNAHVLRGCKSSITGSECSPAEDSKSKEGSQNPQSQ

Take `C[C@]12CC[C@@H]3c4ccc(O)cc4CC[C@H]3[C@@H]1CCC2=O` [E1, estrone, reference compound]: in data set [1], the “uterine weight compared with control group” value is on record as “doubled” and the “Uterine Weight (g, ± SEM)” value was 0.222 ± 0.022 g.
As usually defined, the IC50 is the concentration at which inhibition is half-maximal. Regarding `C[C@]12CC[C@H]3[C@@H](CCC4=CC(=O)C=C[C@@]43O)[C@@H]1CCC2=O` [E1-quinol, 10β-hydroxyestra-1,4-diene-3,17-dione], the concentration for half-maximal inhibition (IC50) in data set [2] and in data set [3] was more than 10 µM throughout. Moreover, in data set [4] (10-fold excess of NADPH, microsome-free buffer solution, identical incubation conditions), the “initial rate of second-order reaction for the reduction by NADPH” value came out at 0.62 ± 0.03 nmol/min. The “extent of reductive conversion” value in data set [4] (Example 4, 1.0 mM NADH) is given as “significant extent of reductive conversion”; in data set [4] (Example 4, 1.0 mM NADPH) it was “significant extent of reductive conversion”. For the same compound, the “flux of entry into the brain” value in data set [5] is listed as “about 2 picomole/minute”. For the same compound, in data set [1], the “uterine weight compared with control group” value is “no difference”. In data set [1], the “Uterine Weight (g, ± SEM)” value is 0.115 ± 0.010 g.
As for `C[C@]12CC[C@H]3[C@@H](CCC4=CC(=O)C=C[C@@]43O)[C@@H]1CC[C@@H]2O` [E2-quinol], the IC50 in data set [2] (ERα, read-out: IC50) is more than 10 µM; in data set [3] (ERβ, read-out: IC50), more than 10 µM.
